Measurements taken from the CheMixHub viscosity set.
Where “and” joins values, the source holds several entries; their conditions need not be identical. Identical values can stand only once. ± gives the uncertainty stated by the source.

Assay: xn = mol fraction of the nth substance listed

C[N+](C)(C)CCO.[Cl-] + OCC(O)CO
Conditions	viscosity
293.15 K, 100 kPa, x1 = 0.3	519 ± 41 mPa·s
293.15 K, 100 kPa, x1 = 0.333	561.4 ± 28 mPa·s
293.15 K, 101.3 kPa, x2 = 0.7	516.1 ± 52 mPa·s
293.42 K, 101.33 kPa, x2 = 0.8	167.1 ± 49 mPa·s
293.43 K, 101.33 kPa, x2 = 0.7	267.9 ± 72 mPa·s
294.19 K, 101.33 kPa, x2 = 0.7	254.1 ± 64 mPa·s
294.4 K, 101.33 kPa, x2 = 0.8	156.8 ± 36 mPa·s
295.2 K, 101.33 kPa, x2 = 0.8	148.2 ± 43 mPa·s
295.27 K, 101.33 kPa, x2 = 0.7	236.6 ± 62 mPa·s
296.05 K, 101.33 kPa, x2 = 0.8	138.9 ± 40 mPa·s
296.09 K, 101.33 kPa, x2 = 0.7	222.7 ± 57 mPa·s
296.85 K, 101.33 kPa, x2 = 0.7	209.9 ± 53 mPa·s
296.95 K, 101.33 kPa, x2 = 0.8	130 ± 37 mPa·s
297.09 K, 101 kPa, x1 = 0.333	348.4 ± 12 mPa·s
297.68 K, 101.33 kPa, x2 = 0.8	123.2 ± 35 mPa·s
297.78 K, 101.33 kPa, x2 = 0.7	195.3 ± 49 mPa·s
298.15 K, 100 kPa, x1 = 0.3	368 ± 25 mPa·s
298.15 K, 100 kPa, x1 = 0.33	348 ± 23 mPa·s
298.15 K, 100 kPa, x1 = 0.333	259 ± 9 mPa·s and 386.3 ± 18 mPa·s
298.15 K, 101 kPa, x1 = 0.167	304 ± 32 mPa·s
298.15 K, 101 kPa, x1 = 0.2	353.5 ± 30 mPa·s and 244 ± 26 mPa·s
298.15 K, 101 kPa, x1 = 0.25	338.7 ± 29 mPa·s and 261 ± 28 mPa·s
298.15 K, 101 kPa, x1 = 0.33	318.1 ± 26 mPa·s
298.15 K, 101 kPa, x1 = 0.333	200 ± 21 mPa·s and 283.2 ± 13 mPa·s
298.15 K, 101.33 kPa, x2 = 0.7	301 ± 34 mPa·s
298.73 K, 101.33 kPa, x2 = 0.7	184.5 ± 46 mPa·s
298.74 K, 101.33 kPa, x2 = 0.8	115.2 ± 33 mPa·s
299.46 K, 101.33 kPa, x2 = 0.7	174.9 ± 43 mPa·s
299.66 K, 101.33 kPa, x2 = 0.8	108.3 ± 30 mPa·s
300.32 K, 101.33 kPa, x2 = 0.7	163 ± 40 mPa·s
300.43 K, 101.33 kPa, x2 = 0.8	101.9 ± 28 mPa·s
301.05 K, 101.33 kPa, x2 = 0.8	96.5 ± 26 mPa·s
301.22 K, 101.33 kPa, x2 = 0.7	152.2 ± 37 mPa·s
301.89 K, 101 kPa, x1 = 0.333	263.5 ± 8.4 mPa·s
302.07 K, 101.33 kPa, x2 = 0.7	144.8 ± 34 mPa·s
302.09 K, 101.33 kPa, x2 = 0.8	90.62 ± 25 mPa·s
303 K, 101 kPa, x1 = 0.3333	428.4 ± 32 mPa·s
303.03 K, 101.33 kPa, x2 = 0.7	137 ± 32 mPa·s
303.04 K, 101.33 kPa, x2 = 0.8	85.38 ± 24 mPa·s
303.15 K, 100 kPa, x1 = 0.33	255.6 ± 14 mPa·s
303.15 K, 100 kPa, x1 = 0.333	290.9 ± 13 mPa·s
303.15 K, 101 kPa, x1 = 0.2	259.6 ± 19 mPa·s
303.15 K, 101 kPa, x1 = 0.25	250.4 ± 18 mPa·s
303.15 K, 101 kPa, x1 = 0.33	239 ± 17 mPa·s
303.97 K, 101.33 kPa, x2 = 0.7	128 ± 30 mPa·s
303.97 K, 101.33 kPa, x2 = 0.8	81.55 ± 22 mPa·s
304.77 K, 101.33 kPa, x2 = 0.7	121.8 ± 28 mPa·s
304.87 K, 101.33 kPa, x2 = 0.8	76.53 ± 21 mPa·s
305.64 K, 101.33 kPa, x2 = 0.7	114.5 ± 26 mPa·s
305.7 K, 101.33 kPa, x2 = 0.8	72.8 ± 19 mPa·s
306.52 K, 101.33 kPa, x2 = 0.7	109 ± 25 mPa·s
306.58 K, 101.33 kPa, x2 = 0.8	69.11 ± 19 mPa·s
307.07 K, 101 kPa, x1 = 0.333	187 ± 5 mPa·s
307.4 K, 101.33 kPa, x2 = 0.7	103.9 ± 24 mPa·s
307.47 K, 101.33 kPa, x2 = 0.8	65.09 ± 18 mPa·s
308 K, 101 kPa, x1 = 0.3333	312 ± 13 mPa·s
308.15 K, 100 kPa, x1 = 0.3	198 ± 9 mPa·s
308.15 K, 100 kPa, x1 = 0.33	190.3 ± 8.6 mPa·s
308.15 K, 100 kPa, x1 = 0.333	216.8 ± 9.6 mPa·s
308.15 K, 101 kPa, x1 = 0.2	192.5 ± 12 mPa·s
308.15 K, 101 kPa, x1 = 0.25	187 ± 11 mPa·s
308.15 K, 101 kPa, x1 = 0.33	181.2 ± 10 mPa·s
308.15 K, 101.3 kPa, x2 = 0.7	194.5 ± 12 mPa·s
308.15 K, 101.33 kPa, x2 = 0.7	96.86 ± 22 mPa·s
308.34 K, 101.33 kPa, x2 = 0.8	61.7 ± 16 mPa·s
309.15 K, 101.33 kPa, x2 = 0.8	58.96 ± 16 mPa·s
309.17 K, 101.33 kPa, x2 = 0.7	92 ± 20 mPa·s
309.94 K, 101.33 kPa, x2 = 0.7	88.35 ± 20 mPa·s
310 K, 101.33 kPa, x2 = 0.8	56.2 ± 15 mPa·s
310.82 K, 101.33 kPa, x2 = 0.8	53.22 ± 14 mPa·s
310.85 K, 101.33 kPa, x2 = 0.7	82.38 ± 18 mPa·s
311.67 K, 101.33 kPa, x2 = 0.8	50.6 ± 13 mPa·s
311.74 K, 101.33 kPa, x2 = 0.7	79.15 ± 17 mPa·s
312.13 K, 101 kPa, x1 = 0.333	144.5 ± 3.1 mPa·s
312.62 K, 101.33 kPa, x2 = 0.7	74.77 ± 16 mPa·s
312.66 K, 101.33 kPa, x2 = 0.8	47.68 ± 13 mPa·s
313 K, 101 kPa, x1 = 0.3333	222.4 ± 8.5 mPa·s
313.15 K, 100 kPa, x1 = 0.3	148 ± 6 mPa·s
313.15 K, 100 kPa, x1 = 0.33	145.1 ± 5.3 mPa·s
313.15 K, 100 kPa, x1 = 0.333	165.7 ± 13 mPa·s and 161.3 ± 7 mPa·s
313.15 K, 101 kPa, x1 = 0.167	119 ± 12 mPa·s
313.15 K, 101 kPa, x1 = 0.2	144.2 ± 6.9 mPa·s and 90 ± 9 mPa·s
313.15 K, 101 kPa, x1 = 0.25	140.9 ± 6.6 mPa·s and 93 ± 9 mPa·s
313.15 K, 101 kPa, x1 = 0.33	138.6 ± 6.5 mPa·s
313.15 K, 101 kPa, x1 = 0.333	85 ± 9 mPa·s
313.4 K, 101.33 kPa, x2 = 0.7	70.27 ± 14 mPa·s
313.68 K, 101.33 kPa, x2 = 0.8	45.67 ± 9.3 mPa·s
314.3 K, 101.33 kPa, x2 = 0.7	67.45 ± 15 mPa·s
314.49 K, 101.33 kPa, x2 = 0.8	43.42 ± 11 mPa·s
315.23 K, 101.33 kPa, x2 = 0.8	41.47 ± 11 mPa·s
315.26 K, 101.33 kPa, x2 = 0.7	64.39 ± 14 mPa·s
315.79 K, 101.33 kPa, x2 = 0.8	40.01 ± 8.1 mPa·s
316.19 K, 101.33 kPa, x2 = 0.7	60.28 ± 12 mPa·s
316.96 K, 101.33 kPa, x2 = 0.8	38.19 ± 7.8 mPa·s
317.25 K, 101.33 kPa, x2 = 0.7	57.92 ± 12 mPa·s
317.43 K, 101 kPa, x1 = 0.333	110.5 ± 1.9 mPa·s
317.78 K, 101.33 kPa, x2 = 0.8	35.41 ± 9.3 mPa·s
317.92 K, 101.33 kPa, x2 = 0.7	55.4 ± 12 mPa·s
318 K, 101 kPa, x1 = 0.3333	159.6 ± 5.3 mPa·s
318.15 K, 100 kPa, x1 = 0.3	116 ± 4 mPa·s
318.15 K, 100 kPa, x1 = 0.333	125.2 ± 5.3 mPa·s
318.15 K, 101 kPa, x1 = 0.2	109 ± 4 mPa·s
318.15 K, 101 kPa, x1 = 0.25	107.2 ± 3.8 mPa·s
318.15 K, 101 kPa, x1 = 0.33	106.9 ± 3.8 mPa·s
318.15 K, 101 kPa, x1 = 0.333	91 ± 3.9 mPa·s
318.15 K, 101.3 kPa, x2 = 0.7	114.4 ± 4.2 mPa·s
318.42 K, 101.33 kPa, x2 = 0.8	35.11 ± 9.2 mPa·s
318.59 K, 101.33 kPa, x2 = 0.7	53.65 ± 12 mPa·s
319.37 K, 101.33 kPa, x2 = 0.8	33.09 ± 8.8 mPa·s
319.53 K, 101.33 kPa, x2 = 0.7	51.45 ± 11 mPa·s
320.2 K, 101.33 kPa, x2 = 0.8	31.05 ± 6.3 mPa·s
320.45 K, 101.33 kPa, x2 = 0.7	48.65 ± 9.9 mPa·s
321.14 K, 101.33 kPa, x2 = 0.8	29.69 ± 6 mPa·s
321.38 K, 101.33 kPa, x2 = 0.7	46.23 ± 9.4 mPa·s
322.2 K, 101.33 kPa, x2 = 0.7	44.48 ± 9 mPa·s
322.23 K, 101 kPa, x1 = 0.333	93.48 ± 1.4 mPa·s
323 K, 101 kPa, x1 = 0.3333	123.5 ± 3.7 mPa·s
323.02 K, 101.33 kPa, x2 = 0.7	42.72 ± 8.7 mPa·s
323.15 K, 100 kPa, x1 = 0.3	89.7 ± 2.5 mPa·s
323.15 K, 100 kPa, x1 = 0.33	88.7 ± 1.8 mPa·s
323.15 K, 100 kPa, x1 = 0.333	98.89 ± 4.1 mPa·s
323.15 K, 101 kPa, x1 = 0.2	83.04 ± 2.1 mPa·s
323.15 K, 101 kPa, x1 = 0.25	82.18 ± 2.1 mPa·s
323.15 K, 101 kPa, x1 = 0.33	83.12 ± 2.1 mPa·s
323.15 K, 101.3 kPa, x2 = 0.7	88.65 ± 2.3 mPa·s
